Our source for the MIC and IC50 values is article PMC10672575, “The Polyketides with Antimicrobial Activities from a Mangrove Endophytic Fungus Trichoderma lentiforme ML-P8-2” (Marine Drugs, 2023).

≈ marks a conversion by molar mass, not a printed value.

Data set [1] deals with methicillin-resistant Staphylococcus aureus (MRSA). In words: Antibacterial MIC, serial dilution in 96-well plates.
Method: (§1) All measurements were conducted in triplicate. Ampicillin and ketoconazole were applied as positive controls for antibacterial and antifungal assays, respectively, and DMSO was utilized as a blank control.
For data set [2], the system named is Staphylococcus aureus. The data set is described as above.
Method: as §1
Data set [3] has as its system Salmonella typhimurium. Described as above. Particulars: Salmonella enterica.
Method: as §1
Data set [4] relates to Bacillus subtilis. Described as above.
Method: as §1
The subject of data set [5] is Pseudomonas aeruginosa. The description is as above.
Method: as §1
A short description of data set [6]: Cytotoxicity, MTT assay. In kind it is cell-based. The conditions noted are these: human, A549 lung cancer cells. The protocol:
The cytotoxicities of compounds 1–10 and eujavanicol A on cells were assessed using MTT assay as described previously. Six cell lines were used, MDA-MB-435 (breast cancer cells), MDA-MB-231 (breast cancer cells), HCT116 (colon cancer cells), A549 (lung cancer cells), SNB19 (glioma cells), and PC3 (prostate cancer cells), which were acquired from Fu Erbo Biotechnology Co., Ltd. (Guangzhou, China).
For orientation: Tetrazolium assays rely on reduction of a dye to a coloured formazan, in cell work by metabolically active cells.

In data set [7] the target is AChE (Homo sapiens, UniProt P22303). In words: biochemical. The conditions noted are these: average of two independent experiments; read-out: IC50 for AChE inhibitory activities. The protocol: Donepezil hydrochloride was taken as a positive control. All measurements were conducted in triplicate from two independent experiments. The reported IC50 was the average value of two independent experiments.
Chain of AChE (P22303 32-614): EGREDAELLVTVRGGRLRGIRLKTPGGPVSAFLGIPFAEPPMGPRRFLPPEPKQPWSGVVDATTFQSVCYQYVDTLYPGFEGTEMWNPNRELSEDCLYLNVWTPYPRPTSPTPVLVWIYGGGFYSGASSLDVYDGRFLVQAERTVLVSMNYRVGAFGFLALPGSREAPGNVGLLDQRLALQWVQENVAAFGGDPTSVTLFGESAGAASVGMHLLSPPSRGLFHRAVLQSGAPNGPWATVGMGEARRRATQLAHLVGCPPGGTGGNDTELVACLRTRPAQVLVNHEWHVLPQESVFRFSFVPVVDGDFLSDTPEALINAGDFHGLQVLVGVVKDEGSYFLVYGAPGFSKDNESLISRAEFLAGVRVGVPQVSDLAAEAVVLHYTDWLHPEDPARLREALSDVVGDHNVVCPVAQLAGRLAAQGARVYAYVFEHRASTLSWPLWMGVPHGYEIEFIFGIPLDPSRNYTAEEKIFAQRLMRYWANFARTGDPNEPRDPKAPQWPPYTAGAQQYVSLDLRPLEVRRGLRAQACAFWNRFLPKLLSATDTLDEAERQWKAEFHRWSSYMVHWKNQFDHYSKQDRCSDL

Data set [8] relates to Penicillium italicum. The data set is described as follows: Antifungal MIC, serial dilution in 96-well plates.
In data set [9] the test system is Candida albicans. The data set is described as follows: Antifungal MIC, serial dilution in 96-well plates.
Method: as §1

Consider `CC1(C)S[C@@H]2[C@H](NC(=O)[C@H](N)c3ccccc3)C(=O)N2[C@H]1C(=O)O` [Ampicillin, reference compound], for which the MIC in [1] came out at 0.25 µM (≈ 0.0874 µg/mL); in [2], 0.25 µM (≈ 0.0874 µg/mL); in data set [3] it was 0.25 µM (≈ 0.0874 µg/mL); in data set [4], 0.25 µM (≈ 0.0874 µg/mL); in [5] it was 0.13 µM (≈ 0.0454 µg/mL).
As to `COc1cc(O)c2c(=O)c(C3CC(O)C(=O)O3)c(C)oc2c1` (centres unmarked) [Compound 1, 5-hydroxy-3-((3’R, 5’S)-3’-hydroxy-2’-oxotetrahydrofuran-5’-yl)-7-methoxy-2-methyl-4H-chromen-4-one], the MIC in data set [1] was greater than 100 µM; in data set [2], greater than 100 µM; in [3], greater than 100 µM; in [8], greater than 100 µM; in data set [9], 50 µM (≈ 15.3 µg/mL); in data set [4], greater than 100 µM. The MIC in data set [5] was greater than 100 µM. Moreover, the IC50 stood at 47.2 ± 5.5 µM in [6] and 38.6 ± 0.2 µM in data set [7].
Regarding `COc1cc(OC)c2c(=O)c(CO)c(C)oc2c1` [Compound 2, 3-(hydroxymethyl)-5,7-dimethoxy-2-methyl-4H-chromen-4-one], the MIC in data set [1] is greater than 100 µM; in [2], greater than 100 µM; in [3] it was greater than 100 µM; in data set [8], greater than 100 µM; in [9], 100 µM (≈ 25 µg/mL); in data set [4] it was greater than 100 µM. This compound also showed an MIC in data set [5] greater than 100 µM. The IC50 in [7] worked out at 33.7 ± 0.4 µM.
For `COc1cc(O)c2c(=O)c(CO)c(C)oc2c1` [Compound 3, 5-hydroxy-3-(hydroxymethyl)-7-methoxy-2-methyl-4H-chromen-4-one], the MIC in data set [1] is greater than 100 µM; in [2], greater than 100 µM; in [3], greater than 100 µM; in data set [8], greater than 100 µM; in [9], 25 µM (≈ 5.91 µg/mL); in data set [4], greater than 100 µM. In [5], this compound yielded an MIC greater than 100 µM. Also, the IC50 in data set [7] turned out to be 20.6 ± 0.3 µM.
As to `CCC(C)C1C=CC2C(O)C(OC(=O)C=C(C)CC(=O)O)CC(C)C2C1(C)C(=O)CCO` (centres unmarked) [Compound 6, Tandyukisin J], the MIC was greater than 100 µM in data set [1]; greater than 100 µM in [2]; greater than 100 µM in data set [3]; 6.25 µM (≈ 2.82 µg/mL) in [8]; 25 µM (≈ 11.3 µg/mL) in data set [9]; greater than 100 µM in [4]. This compound also showed an MIC in data set [5] greater than 100 µM. In data set [7], the 50% inhibitory concentration (IC50) was 40.2 ± 0.7 µM.
Take `CC[C@@H](C)[C@H]1C=C[C@H]2[C@H](O)[C@H](OC(=O)/C=C(\C)CC(=O)O)C[C@@H](C)[C@@H]2[C@@]1(C)C(=O)CCO` [Compound 7, trichoharzin]: the MIC in data set [1] was greater than 100 µM; in data set [2], greater than 100 µM; in data set [3] it was greater than 100 µM; in data set [8], 12.5 µM (≈ 5.63 µg/mL); in data set [9] it was 50 µM (≈ 22.5 µg/mL); in [4], greater than 100 µM. The compound also came in with an MIC in [5] greater than 100 µM. The IC50 in [7] was found to be 38.3 ± 0.4 µM.
Regarding `CC[C@@H](C)[C@H]1C=C[C@H]2[C@H](O)[C@H](OC(=O)C/C(C)=C\C(=O)O)C[C@@H](C)[C@@H]2[C@@]1(C)C(=O)CCO` [Compound 8, tandyukisin D], the MIC was greater than 100 µM in [1]; greater than 100 µM in data set [2]; 50 µM (≈ 22.5 µg/mL) in [3]; 12.5 µM (≈ 5.63 µg/mL) in data set [8]; 50 µM (≈ 22.5 µg/mL) in data set [9]; greater than 100 µM in data set [4]. The same compound registered an MIC in [5] of 50 µM (≈ 22.5 µg/mL). Also, the IC50 in data set [7] came out at 77.9 ± 1.7 µM.
`CC[C@@H](C)[C@H]1C=C[C@H]2[C@H](O)[C@H](OC(=O)C/C(C)=C/C(=O)O)C[C@@H](C)[C@@H]2[C@@]1(C)C(=O)CCO` [Compound 9, tandyukisin G]: the MIC in data set [1] was greater than 100 µM; in [2] it was 50 µM (≈ 22.5 µg/mL); in data set [3], greater than 100 µM; in data set [8], 6.25 µM (≈ 2.82 µg/mL); in [9] it was 25 µM (≈ 11.3 µg/mL); in [4] it was greater than 100 µM. For the same compound, the MIC in data set [5] came out at 50 µM (≈ 22.5 µg/mL). In addition, in data set [7], the IC50 is 43.6 ± 0.4 µM.
Regarding `CC[C@@H](C)[C@H]1C=C[C@H]2[C@H](OC(=O)C/C(C)=C\C(=O)O)[C@H](O)C[C@@H](C)[C@@H]2[C@@]1(C)C(=O)CCO` [Compound 10, tandyukisin C], the MIC was greater than 100 µM in data set [1]; greater than 100 µM in data set [2]; greater than 100 µM in [3]; 50 µM (≈ 22.5 µg/mL) in data set [8]; 25 µM (≈ 11.3 µg/mL) in [9]; greater than 100 µM in data set [4]. In [5], the MIC is greater than 100 µM. Moreover, the IC50 in [7] amounted to 50.9 ± 0.5 µM.
Take `CC[C@@H](C)[C@H]1C=C[C@H]2[C@H](O)[C@H](O)C[C@@H](C)[C@@H]2[C@@]1(C)C(=O)CCO` [Eujavanicol A, eujavanicol A]: the MIC in data set [1] is greater than 100 µM; in data set [2], greater than 100 µM; in [3], greater than 100 µM; in [8], 25 µM (≈ 8.11 µg/mL); in [9] it was 25 µM (≈ 8.11 µg/mL); in data set [4], greater than 100 µM. This compound returned an MIC in [5] greater than 100 µM. Further, the IC50 in data set [7] came out at 32.4 ± 0.7 µM.
Turning to `CC(=O)N1CCN(c2ccc(OCC3COC(Cn4ccnc4)(c4ccc(Cl)cc4Cl)O3)cc2)CC1` (centres unmarked) [Ketoconazole, reference compound], the MIC in [8] came to 1.56 µM (≈ 0.829 µg/mL); in data set [9], 0.13 µM (≈ 0.0691 µg/mL).

Usually MIC stands for the least concentration at which growth counts as inhibited. Usually IC50 stands for the concentration that inhibits the measured activity by half.
